Test system: pea plants cv. 'Carneval'
Assay: Growth chamber experiment 2, pea 'Carneval' sprayed with 4-ME-IAA: peduncle/pedicel growth and seed yield, with or without heat stress (Tables P3-P12)
Type: in vivo, Pisum sativum L.
Procedure: For growth chamber experiment, seeds of ‘Carneval’ were planted at an approximate depth of 2.5 cm in 3-L plastic pots (4 seeds per pot and thinned to 2 plants per pot after approximately 2 weeks) in 1:1 Sunshine #4 potting mix (Sun Gro Horticulture, Vancouver, Canada) and sand. The experiment was arranged in a completely randomized design and grown at the University of Alberta in a growth chamber set at 19° C./17° C. (day/night) with a 16/8-h photoperiod under cool-white fluorescent lights (54W/835/HO high fluorescent bulbs, Phillips, Holland; 350 μE m^2 s^−2). For the heat stress treatment, plants were placed in a separate growth chamber with a 16/8-h photoperiod under cool-white fluorescent lights (F54/15/835/HO high fluorescent bulbs, Phillips, Holland) for 4 days where the temperature was cycled over a 24 hr period as follows: 33° C. air temperature for 6 hours per day (between 11:00 and 17:00 hrs) for 4 days during the light cycle; the remainder of the light cycle was maintained at a 22° C. air temperature; the dark cycle was maintained at 19° C. After the 4 day heat treatment, the plants were returned to the same growth chamber they were originally grown in, where they were taken to maturity.
For experiment 2, aqueous 4-methyl-indole-3-acetic acid (4-ME-IAA) solutions at 1×10^−7, 1×10^−6, 1×10^−5, or 1×10^−4 M in 0.1% (v/v) Tween 80 or aqueous 0.1% (v/v) Tween 80 (control) were applied as a spray to the entire plant to cover when the first flowering node of the main stem was near or at anthesis. In addition to the application at the timing cited above, one application of 4-ME-IAA at 1×10^−6 M or 1×10^−5 M was made when the floral buds were tightly clustered inside the stipule leaves at the stem apex (floral buds not visible outside of stipule leaves; designated the ‘Early’ treatment). In the heat stress treatment, the hormone or control treatment application was completed 16 hrs prior to the initiation of the first heat-stress cycle. The length and diameter (measured mid-length) of the lower and upper peduncles and pedicels of the inflorescence with two pods (or the lower peduncle and pedicel if a single pod node) at the first, second, third and fourth flowering nodes of the main stem of pea plants were determined for hormone-treated and control plants. Standard error of the mean (SE) was calculated for the means of all data for a measure of statistical significance in comparing treatment means.

[1] = 1×10^−4 M, applied near or at anthesis, no heat stress
[2] = 1×10^−4 M, first flowering node, heat stress (33° C. 6 h/day, 4 days)
[3] = 1×10^−4 M, first flowering node, no heat stress
[4] = 1×10^−4 M, fourth flowering node, heat stress (33° C. 6 h/day, 4 days)
[5] = 1×10^−4 M, fourth flowering node, no heat stress
[6] = 1×10^−4 M, heat stress (33° C. 6 h/day, 4 days)
[7] = 1×10^−4 M, second flowering node, heat stress (33° C. 6 h/day, 4 days)
[8] = 1×10^−4 M, second flowering node, no heat stress
[9] = 1×10^−4 M, third flowering node, heat stress (33° C. 6 h/day, 4 days)
[10] = 1×10^−4 M, third flowering node, no heat stress
[11] = 1×10^−5 M, applied near or at anthesis, no heat stress
[12] = 1×10^−5 M, first flowering node, heat stress (33° C. 6 h/day, 4 days)
[13] = 1×10^−5 M, first flowering node, no heat stress
[14] = 1×10^−5 M, fourth flowering node, heat stress (33° C. 6 h/day, 4 days)
[15] = 1×10^−5 M, fourth flowering node, no heat stress
[16] = 1×10^−5 M, heat stress (33° C. 6 h/day, 4 days)
[17] = 1×10^−5 M, second flowering node, heat stress (33° C. 6 h/day, 4 days)
[18] = 1×10^−5 M, second flowering node, no heat stress
[19] = 1×10^−5 M, third flowering node, heat stress (33° C. 6 h/day, 4 days)
[20] = 1×10^−5 M, third flowering node, no heat stress
[21] = 1×10^−6 M, applied near or at anthesis, no heat stress
[22] = 1×10^−6 M, first flowering node, heat stress (33° C. 6 h/day, 4 days)

## Cc1cccc2[nH]cc(CC(=O)O)c12 [4-ME-IAA, 4-methyl-indole-3-acetic acid]
[1]
  Ratio of seed number on main stem to lateral stems: 4.6 ± 1.1
  Seed number per plant: 56.7 ± 3.6
  Seed weight per plant: 14.0 ± 1.0 g
  Weight per seed: 0.247 ± 0.006 g
  increase in seed yield (seed weight per plant) vs control: 61%
[2]
  Lower Pedicel Length: 7.63 ± 0.46 mm
  Lower Pedicel diameter: 1.58 ± 0.09 mm
  Lower Peduncle Length: 52.22 ± 4.26 mm
  Lower Peduncle diameter: 1.71 ± 0.06 mm
  Upper Pedicel Length: 7.00 ± 0.45 mm
  Upper Pedicel diameter: 1.6 ± 0.07 mm
  Upper Peduncle Length: 17.00 ± 1.37 mm
  Upper Peduncle diameter: 1.44 ± 0.07 mm
[3]
  Lower Pedicel Length: 8.50 ± 0.37 mm
  Lower Pedicel diameter: 1.73 ± 0.05 mm
  Lower Peduncle Length: 69.70 ± 4.21 mm
  Lower Peduncle diameter: 1.73 ± 0.07 mm
  Upper Pedicel Length: 8.10 ± 0.43 mm
  Upper Pedicel diameter: 1.54 ± 0.05 mm
  Upper Peduncle Length: 15.20 ± 1.36 mm
  Upper Peduncle diameter: 1.44 ± 0.03 mm
[4]
  Lower Pedicel Length: 7.00 ± 0.41 mm
  Lower Pedicel diameter: 1.45 ± 0.11 mm
  Lower Peduncle Length: 25.50 ± 3.97 mm
  Lower Peduncle diameter: 1.38 ± 0.10 mm
  Upper Pedicel Length: 7.00 ± 0.0 mm
  Upper Pedicel diameter: 1.33 ± 0.15 mm
  Upper Peduncle Length: 14.50 ± 0.50 mm
  Upper Peduncle diameter: 1.17 ± 0.02 mm
[5]
  Lower Pedicel Length: 8.44 ± 0.23 mm
  Lower Pedicel diameter: 1.42 ± 0.05 mm
  Lower Peduncle Length: 41.00 ± 3.24 mm
  Lower Peduncle diameter: 1.36 ± 0.06 mm
  Upper Pedicel Length: 8.22 ± 0.14 mm
  Upper Pedicel diameter: 1.36 ± 0.06 mm
  Upper Peduncle Length: 16.67 ± 0.39 mm
  Upper Peduncle diameter: 1.17 ± 0.04 mm
[6]
  Ratio of seed number on main stem to lateral stems: 2.1 ± 0.4
  Seed number plant: 55.6 ± 6.2
  Seed weight per per plant: 14.5 ± 1.7 g
  Weight per seed: 0.261 ± 0.009 g
[7]
  Lower Pedicel Length: 7.56 ± 0.38 mm
  Lower Pedicel diameter: 1.56 ± 0.06 mm
  Lower Peduncle Length: 40.33 ± 4.51 mm
  Lower Peduncle diameter: 1.63 ± 0.04 mm
  Upper Pedicel Length: 7.25 ± 0.25 mm
  Upper Pedicel diameter: 1.54 ± 0.05 mm
  Upper Peduncle Length: 16.88 ± 1.52 mm
  Upper Peduncle diameter: 1.29 ± 0.04 mm
[8]
  Lower Pedicel Length: 8.30 ± 0.47 mm
  Lower Pedicel diameter: 1.65 ± 0.05 mm
  Lower Peduncle Length: 55.60 ± 4.08 mm
  Lower Peduncle diameter: 1.67 ± 0.06 mm
  Upper Pedicel Length: 8.3 ± 0.47 mm
  Upper Pedicel diameter: 1.55 ± 0.05 mm
  Upper Peduncle Length: 18.40 ± 0.72 mm
  Upper Peduncle diameter: 1.38 ± 0.05 mm
[9]
  Lower Pedicel Length: 7.33 ± 0.29 mm
  Lower Pedicel diameter: 1.55 ± 0.08 mm
  Lower Peduncle Length: 28.22 ± 3.07 mm
  Lower Peduncle diameter: 1.53 ± 0.06 mm
  Upper Pedicel Length: 7.50 ± 0.29 mm
  Upper Pedicel diameter: 1.49 ± 0.05 mm
  Upper Peduncle Length: 14.00 ± 1.00 mm
  Upper Peduncle diameter: 1.29 ± 0.03 mm
[10]
  Lower Pedicel Length: 8.20 ± 0.33 mm
  Lower Pedicel diameter: 1.49 ± 0.06 mm
  Lower Peduncle Length: 49.90 ± 4.2 mm
  Lower Peduncle diameter: 1.53 ± 0.05 mm
  Upper Pedicel Length: 8.10 ± 0.28 mm
  Upper Pedicel diameter: 1.40 ± 0.06 mm
  Upper Peduncle Length: 19.10 ± 0.75 mm
  Upper Peduncle diameter: 1.21 ± 0.04 mm
[11]
  Ratio of seed number on main stem to lateral stems: 3.3 ± 0.6
  Seed number per plant: 60.3 ± 3.2
  Seed weight per plant: 14.0 ± 0.9 g
  Weight per seed: 0.230 ± 0.004 g
  increase in seed yield (seed weight per plant) vs control: 61%
[12]
  Lower Pedicel Length: 9.11 ± 0.26 mm
  Lower Pedicel diameter: 1.59 ± 0.06 mm
  Lower Peduncle Length: 61.33 ± 4.13 mm
  Lower Peduncle diameter: 1.60 ± 0.08 mm
  Upper Pedicel Length: 8.83 ± 0.17 mm
  Upper Pedicel diameter: 1.56 ± 0.08 mm
  Upper Peduncle Length: 16.00 ± 1.46 mm
  Upper Peduncle diameter: 1.33 ± 0.04 mm
[13]
  Lower Pedicel Length: 8.70 ± 0.45 mm
  Lower Pedicel diameter: 1.58 ± 0.04 mm
  Lower Peduncle Length: 63.10 ± 4.95 mm
  Lower Peduncle diameter: 1.53 ± 0.05 mm
  Upper Pedicel Length: 8.70 ± 0.37 mm
  Upper Pedicel diameter: 1.49 ± 0.03 mm
  Upper Peduncle Length: 19.90 ± 1.12 mm
  Upper Peduncle diameter: 1.31 ± 0.03 mm
[14]
  Lower Pedicel Length: 7.17 ± 0.48 mm
  Lower Pedicel diameter: 1.41 ± 0.07 mm
  Lower Peduncle Length: 29.50 ± 2.63 mm
  Lower Peduncle diameter: 1.39 ± 0.02 mm
[15]
  Lower Pedicel Length: 9.00 ± 0.44 mm
  Lower Pedicel diameter: 1.22 ± 0.09 mm
  Lower Peduncle Length: 40.22 ± 3.64 mm
  Lower Peduncle diameter: 1.41 ± 0.05 mm
  Upper Pedicel Length: 8.88 ± 0.44 mm
  Upper Pedicel diameter: 1.11 ± 0.10 mm
  Upper Peduncle Length: 18.13 ± 0.88 mm
  Upper Peduncle diameter: 1.03 ± 0.08 mm
[16]
  Ratio of seed number on main stem to lateral stems: 1.1 ± 0.1
  Seed number plant: 50.6 ± 5.0
  Seed weight per per plant: 13.7 ± 1.2 g
  Weight per seed: 0.274 ± 0.005 g
[17]
  Lower Pedicel Length: 8.11 ± 0.11 mm
  Lower Pedicel diameter: 1.68 ± 0.07 mm
  Lower Peduncle Length: 47.11 ± 5.35 mm
  Lower Peduncle diameter: 1.58 ± 0.05 mm
  Upper Pedicel Length: 8.00 ± 0.29 mm
  Upper Pedicel diameter: 1.55 ± 0.06 mm
  Upper Peduncle Length: 16.33 ± 0.82 mm
  Upper Peduncle diameter: 1.32 ± 0.04 mm
[18]
  Lower Pedicel Length: 8.80 ± 0.33 mm
  Lower Pedicel diameter: 1.50 ± 0.04 mm
  Lower Peduncle Length: 53.50 ± 5.01 mm
  Lower Peduncle diameter: 1.45 ± 0.04 mm
  Upper Pedicel Length: 8.60 ± 0.37 mm
  Upper Pedicel diameter: 1.39 ± 0.04 mm
  Upper Peduncle Length: 18.10 ± 0.74 mm
  Upper Peduncle diameter: 1.16 ± 0.03 mm
[19]
  Lower Pedicel Length: 7.67 ± 0.37 mm
  Lower Pedicel diameter: 1.58 ± 0.06 mm
  Lower Peduncle Length: 39.22 ± 3.35 mm
  Lower Peduncle diameter: 1.52 ± 0.05 mm
  Upper Pedicel Length: 7.00 ± 0.32 mm
  Upper Pedicel diameter: 1.56 ± 0.08 mm
  Upper Peduncle Length: 16.20 ± 1.74 mm
  Upper Peduncle diameter: 1.38 ± 0.09 mm
[20]
  Lower Pedicel Length: 8.56 ± 0.41 mm
  Lower Pedicel diameter: 1.35 ± 0.04 mm
  Lower Peduncle Length: 47.11 ± 4.73 mm
  Lower Peduncle diameter: 1.53 ± 0.03 mm
  Upper Pedicel Length: 8.67 ± 0.29 mm
  Upper Pedicel diameter: 1.25 ± 0.05 mm
  Upper Peduncle Length: 20.44 ± 1.00 mm
  Upper Peduncle diameter: 1.13 ± 0.05 mm
[21]
  Ratio of seed number on main stem to lateral stems: 2.9 ± 0.6
  Seed number per plant: 63.3 ± 4.6
  Seed weight per plant: 14.9 ± 0.9 g
  Weight per seed: 0.238 ± 0.006 g
  increase in seed yield (seed weight per plant) vs control: 71%
[22]
  Lower Pedicel Length: 8.80 ± 0.29 mm
  Lower Pedicel diameter: 1.47 ± 0.05 mm
  Lower Peduncle Length: 60.40 ± 5.23 mm
